# Laboratory results from patent publication US12653805B2, “Targeting LASP1, eIF4A1, eIF4B and CXC4 with modulators and combinations thereof for cancer therapy” (The University of Toledo, priority 2019, dated 2026).
# Key:
# MCF7 breast cancer cells = conditions: RNA-Seq data, p 4.3E−10, adjusted p 8.5E−7; cited from earlier work
# [1] = tested on: triple-negative SUM-159-PT cells; experiment: Immunoblotting after digoxin in SUM-159-PT cells; format: cell-based, human; conditions: 30 nM digoxin (low dose)
# [2] = tested on: triple-negative MDA-MB-231 cells; experiment: Immunoblotting after digoxin in MDA-MB-231 cells; format: cell-based, human
# eIF4A1 = target: T1, eIF4A1 (Homo sapiens, UniProt P60842); format: cell-based
# T1 construct: A GQ-5′-UTR dual reporter was created in breast cancer cell lines; endogenous in cells
# T1 sequence (P60842 whole entry): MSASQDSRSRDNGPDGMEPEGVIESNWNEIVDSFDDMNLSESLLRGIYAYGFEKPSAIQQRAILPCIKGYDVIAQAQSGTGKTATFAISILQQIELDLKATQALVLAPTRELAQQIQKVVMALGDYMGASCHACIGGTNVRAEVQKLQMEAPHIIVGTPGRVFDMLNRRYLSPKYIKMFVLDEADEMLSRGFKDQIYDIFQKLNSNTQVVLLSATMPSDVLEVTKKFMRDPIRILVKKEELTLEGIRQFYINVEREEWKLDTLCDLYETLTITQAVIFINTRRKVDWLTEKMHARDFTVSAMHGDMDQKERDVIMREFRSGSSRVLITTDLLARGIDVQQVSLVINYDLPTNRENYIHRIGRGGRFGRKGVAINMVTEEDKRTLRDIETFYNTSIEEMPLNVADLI
# Source text: A GQ-5′-UTR dual reporter was created in breast cancer cell lines which would report either a reduction in td-Tomato fluorescence or luciferase activity if eIF4A1 is inhibited by any of the compounds in the Prestwick library (FIGS. 26A-26B).
# [3] = tested on: BCSCs derived from MDA-Bone-Un cells; experiment: Immunoblotting of RocA-treated BCSCs from MDA-Bone-Un; format: cell-based, human
# [4] = tested on: BCSCs derived from MDA-Bone-Un cells; experiment: Mammosphere formation efficiency (MFE) assay, BCSCs from MDA-Bone-Un; format: cell-based, human; conditions: 10 nM RocA, p<0.0001
# Procedure: (§1) The evaluation of MFE was performed as described previously. Briefly, 1×10^3 ALDH+ BCSCs of MDA-Bone-Un or SUM-159PT origins were seeded onto 96-well ultra-low attachment plates. They were maintained in DMEM/F12 media supplemented with […] bFGF, […] hEGF, 2% B27 mixture, and 1% penicillin/streptomycin for 7 days. The mammosphere images were obtained longitudinally by employing IncuCyte® S3 Live-Cell Analysis System (Essen BioScience, Ann Arbor, Mich.). On day 7, MFE was calculated by employing the formula: (number of mammospheres formed/total number of cells seeded)×100. A diameter of 100 μm was used as a cut-off in the determination of the mammosphere forming ability. For the assessment of secondary MFE, the BCSCs from primary MFE were collected, centrifuged, and re-seeded onto 96-well plates coated with poly 2-hydroxyethyl methacrylate (poly-HEMA). The cells were monitored, and the mammospheres were counted using IncuCyte.
# [5] = tested on: MDA-Bone-Un eIF4A CC and KO cells; experiment: Viability of MDA-Bone-Un eIF4A CRISPR control and knockout cells after RocA; format: cell-based, human; conditions: 48 h
# Procedure: (§2) Briefly, to assess the cell viability, 3×10^3 cells/well (SUM-159PT, SUM Pac 200 nM, MDA-Bone-Un eIF4A CC and KO) were seeded and the cells were allowed to attach and spread overnight under adherent or non-adherent low attachment conditions.
# [6] = tested on: BCSCs derived from MDA-Bone-Un cells; experiment: DRAQ7 cell death assay in BCSCs from MDA-Bone-Un; format: cell-based, human; conditions: 30 nM RocA, 7 days
# Procedure: (§3) The induction of cell death by the small molecule inhibitor rocaglamide A (RocA) (Sigma/Aldrich, St. Louis, Mo., Cat. #—SML0656) was followed by employing Deep Red Anthraquinone 7 (DRAQ7) dye (Abcam, Cat. #—ab109202). DRAQ7 is a cell impermeable, far-red fluorescent DNA dye that stains the nuclei of dead and plasma membrane-compromised cells. […] For the cell death analysis, ALDH+ BCSCs were treated with the indicated drug dosage for 7 days. On day 7, DRAQ7 was added to the cells (1:2,000 dilution) and incubated overnight. Dead BCSCs were tracked by DRAQ7 fluorescence by employing the EVOS cell imaging system (ThermoFisher Scientific, Rockford, Ill.).
# [7] = tested on: BCSCs derived from SUM-159PT cells; experiment: DRAQ7 cell death assay in BCSCs from SUM-159PT; format: cell-based, human; conditions: 5 nM RocA, day 7
# Procedure: as §3
# [8] = tested on: 231S LASP1 NS and KD cells; experiment: Pharmacological inhibition of eIF4A in 231S LASP1 NS and KD cells; format: cell-based, human
# Procedure: 231S LASP1 NS/KD cells were plated into 96-well dishes (3,000 cells/well) and incubated with various amounts of rocaglamide A (RocA) (Sigma/Aldrich, St. Louis, Mo., Cat. No. SML0656) in low serum media (LSM-DMEM/0.5% FBS). Images were acquired via an IncuCyte R S3 Live-Cell Analysis System (Essen BioScience, Ann Arbor, Mich.). Two images per well were acquired every 2 h. Data was processed on the IncuCyte S3 software (Essen BioScience, Ann Arbor, Mich.). Only cells with an area >150 μm^2 were analyzed to avoid cellular debris. Data is reflective of the percent confluence of each image at 36 h RocA incubation. Percent inhibition was calculated in reference to the DMSO control. The readings from 231S LASP1 NS cells were set to 1. In the cell viability experiments, 231S LASP1 NS/KD cells were seeded at 6,000 cells/well and allowed to attach and spread overnight. The following day, complete media was replaced with LSM and RocA. Cell viability was then determined 36 h later using a cell counting kit-8 (Sigma/Aldrich, St. Louis, Mo., Cat. No 96992) according to the manufacturer's instructions. Data is reflective of the absorbance at 450 nm (A450). The DMSO controls were set to 100%.
# [9] = tested on: BCSCs derived from SUM-159PT cells; experiment: Mammosphere formation efficiency (MFE) assay, BCSCs from SUM-159PT; format: cell-based, human
# Procedure: as §1
# SUM-159PT cells = experiment: Viability of parental and paclitaxel-resistant SUM-159PT cells after RocA; format: cell-based, human; conditions: therapy naïve and paclitaxel-resistant (Pac 200) cells, 48 h, adherent and non-adherent conditions
# Procedure: as §2
# [10] = tested on: BCSCs derived from MDA-Bone-Un cells; experiment: CellTiter-Glo viability assay in BCSCs from MDA-Bone-Un; format: cell-based, human; conditions: 7 days
# Source text: (§4) The cell viability was alternatively determined on day 7 following treatment with RocA by employing the CellTiter-Glo® luminescent cell viability kit (Promega, Cat. #—G7570) as per the manufacturer's instructions. This quantitative assay is a homogeneous method of determining the number of viable cells in culture based on the amount of adenosine triphosphate (ATP) present inside the cells.
# [11] = tested on: BCSCs derived from SUM-159PT cells; experiment: CellTiter-Glo viability assay in BCSCs from SUM-159PT; format: cell-based, human; conditions: 5 nM RocA
# Source text: as §4
# [12] = 45 nM RocA, 72 h, pooled replicates
smiles,measurement,setting,value
C[C@H]1O[C@@H](O[C@H]2[C@@H](O)C[C@H](O[C@H]3[C@@H](O)C[C@H](O[C@H]4CC[C@@]5(C)[C@H](CC[C@@H]6[C@@H]5C[C@@H](O)[C@]5(C)[C@@H](C7=CC(=O)OC7)CC[C@]65O)C4)O[C@@H]3C)O[C@@H]2C)C[C@H](O)[C@@H]1O [digoxin],C-Myc mRNA level,MCF7 breast cancer cells,decrease
same,downregulation (reduction) of c-MYC,[1],60%
same,downregulation of the levels of eIF4A1,[1],50%
same,downstream effectors of eIF4A1 activity BIRC5 (survivin) and Rho Kinase 1 (ROCK1),[2],dose-dependent inhibition
same,activity of eIF4A1,eIF4A1; 3 different TNBC cell lines,potently inhibited
same,Z-score,eIF4A1; Prestwick chemical library screen,below −5
COc1ccc([C@@]23Oc4cc(OC)cc(OC)c4[C@]2(O)[C@H](O)[C@H](C(=O)N(C)C)[C@H]3c2ccccc2)cc1 [rocaglamide A],reduction in NANOG level,"[3]; 15 nM RocA, 48 h",2 fold
same,reduction of ABC transporter ABCB1,"[3]; 45 nM RocA, 48 and 72 h, pooled replicates",10 fold
same,decrease of SOX2 level,"[3]; 45 nM RocA, 24 h, pooled replicates",10 fold
same,reduction in NANOG level,"[3]; 45 nM RocA, 48 h",10 fold
same,reduction of OCT4,"[3]; 45 nM RocA, 48 h (dose experiment)",3.3 fold
same,decrease of OCT4,"[3]; 45 nM RocA, 48 h, 3 biological replicates pooled",2.5 fold
same,SOX2 level increased back,"[3]; 45 nM RocA, 48 h, pooled replicates",2 fold
same,SOX2,[3]; [12],degradation of SOX2 was observed
same,decrease of OCT4,[3]; [12],10 fold
same,"expression of BIRC5, Cyclin D1, Cyclin D3, and ROCK1","[3]; 15, 30, and 45 nM RocA, 48 h",dramatic reduction
same,total protein level of eIF4A,"[3]; 15, 30, and 45 nM RocA, 48 h",did not affect
same,induction of cleaved caspase-3 (increase),"[3]; RocA 15-45 nM, 48 h",up to 17.1 fold
same,levels of the BCSC markers ALDH1A1 and CD44,"[3]; RocA, 48 h",not affected
same,SOX2 level,"[3]; all concentrations of RocA, 48 h",remained elevated above the basal level
same,reduction of the primary mammospheres,[4],~50%
same,secondary MFE,[4],severely impacted
same,viability following RocA challenge,[5]; MDA-Bone-Un eIF4A CC cells,steep decrease in viability
same,sensitivity of viability to RocA,"[5]; MDA-Bone-Un eIF4A KO cells, up to 60 nM RocA",relatively insensitive
same,DRAQ7 staining (dead BCSCs),[6],intense DRAQ7 staining
same,BCSCs intensely stained with DRAQ7,[7],More than 50%
same,cellular viability,"[8]; 231S LASP1 KD cells, RocA 36 h, cell counting kit-8",significantly decreased
same,BIRC5 levels,"[8]; 231S LASP1 NS cells, 24 h RocA, 30 to 100 nM",dose-dependent decrease
same,proliferation,[8]; MDA-MB-231 cells with stable knockdown of LASP1 combined with rocaglamide A,effectively inhibited
same,reduction in formation of the primary mammospheres,[9]; 10 nM RocA,50%
same,decrease in secondary MFE,"[9]; RocA, compared with primary MFE",more drastic
same,targeting of cell viability,SUM-159PT cells,effective
same,viability based on ATP level,[10]; 30 nM RocA,nearly all BCSCs were wiped out
same,IC50,"[10]; cellular ATP, read-out: half maximal inhibitory concentration (IC50)",15 nM
same,cells dead,[11],More than 50%
